Assay results reported in US10688200B2, “Urea-based prostate specific membrane antigen (PSMA) inhibitors for imaging and therapy” (Five Eleven Pharma Inc., priority 2015, dated 2020).

What was measured:
[1] = test system: LNCaP (left shoulder) and PC-3 (right shoulder) tumor bearing nude mouse; experiment: Small animal PET imaging with [68Ga]1a and [68Ga]4a; type: in vivo; conditions: 60 to 75 min after i.v. injection
Protocol: Male athymic mice (CD-1 nude, 5-6 weeks old) were obtained from Charles River, and were allowed to acclimatize at the vivarium for 1 week prior to implanting tumors. Mice were provided with food and water ad libitum. LNCaP tumors were induced on the left shoulder by sub-cutaneous (s.c.) injection of 5.0×10^6 cells in a 200 μL cell suspension of a 1:1 v/v mixture of media with reconstituted basement membrane (BD Matrigel™, Collaborative Biomedical Products Inc., Bedford, Mass.). Similarly, PC-3 tumors were induced on the right shoulder by s.c. injection of 2.0×10^6 cells. Palpable LNCaP tumors developed after a period of 4-5 weeks.
Dynamic small animal PET (APET) imaging studies of LNCaP (left shoulder) and PC-3 (right shoulder) tumor bearing nude mouse were performed with [^68Ga]1a and [^68Ga]4a. PET imaging studies were performed on a Phillips Mosaic small animal PET scanner, which has an imaging field of view of 11.5 cm. Under isoflurane anesthesia (1-2%, 1 L/min oxygen), the tumor-bearing nude mouse was injected with 0.5 mCi activity by an intravenous injection into the lateral tail vein. Data acquisition began at 30 min after the injection. Dynamic scans were conducted over a period of 1 h (5 min/frame; image voxel size 0.5 mm^3). Mouse was visually monitored for breathing, and a heating pad was used to maintain body temperature throughout the entire procedure. Images were reconstructed and a region of interest (ROI) analysis was performed using AMIDE software (http://amide.sourceforge.net/).
Representative animal PET images of LNCaP xenograft mice between 60 to 75 min after i.v. injection of [^68Ga]1a, and [^68Ga]4a are shown in FIGS. 3A-3F. […] FIGS. 3A-3F show sagittal, transaxial and coronal sections of APET images of nude mouse with LNCaP tumor at left shoulder and PC-3 tumor at right shoulder between 60 to 75 min post i.v. injection of [^68Ga]1a (FIGS. 3A-3C) and [^68Ga]4a (FIG. 3D-3F).

[2] = Biodistribution of radiotracers in normal mice; type: in vivo, mouse; conditions: normal male mice
Protocol: Normal CD-1 male mice were injected via the tail vein with 35 μCi of [^68Ga] radiotracers (0.2 nmole of ligand). […] All organs were removed and blood was also collected. Each organ was weighed, and the tissue radioactivity was measured with an automated gamma counter (Wizard, Perkin Elmer). The % ID/g was calculated by comparison with samples of a standard dilution of the initial dose. All measurements were corrected for decay.

O=C(O)CCc1ccc(O)c(CN(CCN(CC(=O)O)Cc2cc(CCC(=O)NCCCCCC(=O)NCCCC[C@H](NC(=O)N[C@@H](CCC(=O)O)C(=O)O)C(=O)O)ccc2O)CC(=O)O)n1 [[^68Ga]4a, metal not drawn]
LNCaP tumor visualization in PET images, in words [1]: clearly visualized | PC-3 (PSMA negative) tumor uptake in PET images, in words [1]: did not show any uptakes | Biodistribution: Blood ([2]; 2 min): 8.59 ± 0.82 % dose/g | Biodistribution: Bone ([2]; 2 min): 2.33 ± 0.21 % dose/g | Biodistribution: Brain ([2]; 2 min): 0.27 ± 0.04 % dose/g | Biodistribution: Heart ([2]; 2 min): 3.62 ± 0.34 % dose/g | Biodistribution: Kidney ([2]; 2 min): 60.7 ± 2.89 % dose/g | Biodistribution: Liver ([2]; 2 min): 2.22 ± 0.23 % dose/g | Biodistribution: Lung ([2]; 2 min): 5.45 ± 0.44 % dose/g | Biodistribution: Muscle ([2]; 2 min): 2.68 ± 0.30 % dose/g | Biodistribution: Pancreas ([2]; 2 min): 2.35 ± 0.12 % dose/g | Biodistribution: Skin ([2]; 2 min): 2.84 ± 0.19 % dose/g | Biodistribution: Spleen ([2]; 2 min): 3.64 ± 0.16 % dose/g | Biodistribution: Blood ([2]; 30 min): 0.95 ± 0.33 % dose/g | Biodistribution: Bone ([2]; 30 min): 0.37 ± 0.10 % dose/g | Biodistribution: Brain ([2]; 30 min): 0.04 ± 0.01 % dose/g | Biodistribution: Heart ([2]; 30 min): 0.56 ± 0.21 % dose/g | Biodistribution: Kidney ([2]; 30 min): 148 ± 5.73 % dose/g | Biodistribution: Liver ([2]; 30 min): 0.39 ± 0.12 % dose/g | Biodistribution: Lung ([2]; 30 min): 1.55 ± 0.30 % dose/g | Biodistribution: Muscle ([2]; 30 min): 0.61 ± 0.10 % dose/g | Biodistribution: Pancreas ([2]; 30 min): 0.89 ± 0.12 % dose/g | Biodistribution: Skin ([2]; 30 min): 0.99 ± 0.16 % dose/g | Biodistribution: Spleen ([2]; 30 min): 3.51 ± 1.69 % dose/g | Biodistribution: Blood ([2]; 60 min): 0.30 ± 0.03 % dose/g | Biodistribution: Bone ([2]; 60 min): 0.24 ± 0.02 % dose/g | Biodistribution: Brain ([2]; 60 min): 0.03 ± 0.00 % dose/g | Biodistribution: Heart ([2]; 60 min): 0.31 ± 0.14 % dose/g | Biodistribution: Kidney ([2]; 60 min): 181 ± 26.81 % dose/g | Biodistribution: Liver ([2]; 60 min): 0.23 ± 0.01 % dose/g | Biodistribution: Lung ([2]; 60 min): 1.18 ± 0.14 % dose/g | Biodistribution: Muscle ([2]; 60 min): 0.35 ± 0.07 % dose/g | Biodistribution: Pancreas ([2]; 60 min): 1.09 ± 0.27 % dose/g | Biodistribution: Skin ([2]; 60 min): 0.45 ± 0.07 % dose/g | Biodistribution: Spleen ([2]; 60 min): 2.83 ± 1.49 % dose/g | Biodistribution: Blood ([2]; 120 min): 0.20 ± 0.10 % dose/g | Biodistribution: Bone ([2]; 120 min): 0.23 ± 0.06 % dose/g | Biodistribution: Brain ([2]; 120 min): 0.02 ± 0.00 % dose/g | Biodistribution: Heart ([2]; 120 min): 0.21 ± 0.03 % dose/g | Biodistribution: Kidney ([2]; 120 min): 128 ± 25.0 % dose/g | Biodistribution: Liver ([2]; 120 min): 0.18 ± 0.05 % dose/g | Biodistribution: Lung ([2]; 120 min): 0.83 ± 0.21 % dose/g | Biodistribution: Muscle ([2]; 120 min): 0.20 ± 0.03 % dose/g | Biodistribution: Pancreas ([2]; 120 min): 1.02 ± 0.26 % dose/g | Biodistribution: Skin ([2]; 120 min): 0.30 ± 0.02 % dose/g | Biodistribution: Spleen ([2]; 120 min): 2.83 ± 1.25 % dose/g
